Test results from patent US9598407B2, “Antibacterial piperidinyl substituted 3,4-dihydro-1H-[1,8]naphthyridinones” (JANSSEN SCIENCES IRELAND UC, priority 2011, dated 2017).
In brackets after ≈: the same amount, converted by molar mass.

Columns and labels:
[1] = test system: S. aureus; assay: Antibacterial susceptibility testing, IC90 with 10% human serum (STA + 10% HS 361.169); assay type: cell-based, Staphylococcus aureus; details: S. aureus with 10% human serum
Description: (§1) The following bacteria were used: Staphylococcus aureus ATCC 29213, methicillin-resistant Staphylococcus aureus (MRSA) ATCC 700788 and Escherichia coli ATCC 35218. The bacteria used in this study were grown overnight in flasks containing 100 ml Mueller-Hinton broth (Difco cat. nr. 0757-17) in sterile de-ionized water, with shaking, at 37° C. Stocks were store at −70° C. until use.
(§2) Bacteria were incubated on a tryptic soy agar plate containing 5% sheep blood (Becton Dickinson cat. nr. 254053) for 18-24 hours at 35° C. in aerobic conditions (first passage). For the second passage, fresh Mueller-Hinton broth is inoculated with 5-10 colonies and grown overnight at 35° C. until turbidity (reaching log-phase) in aerobic conditions is reached. The bacterial suspension is then adjusted to 0.5 McFarland density and further diluted 1:100 in Mueller Hinton broth medium. This is used as inoculum.
(§3) MIC assays were performed by the broth microdilution method in a 96-well format (flat-bottom microtitre plates) with a final volume of 0.1 ml Mueller Hinton broth containing two-fold serial dilutions of compounds and inoculated with 5×10^5 CFU/ml of bacteria (standard inoculum size according to CLSI guidelines). Inhibitors are typically varied over the range of 63 to 0.49 μM. The final DMSO concentration in the assay was 1.25% (maximum tolerable DMSO concentration=6%). In the assays where the effect of human serum on the activity of the compounds against S. aureus was tested, human serum was added at a final concentration of 10%. The plates were incubated at 35° C. for 16-20 hours. At the end of incubation the bacterial growth was quantified fluorometrically. For this, resazurin was added to all wells and the plates were re-incubated. The incubation time is dependent on the type of bacteria. A change in color from blue to pink indicated the growth of bacteria. The fluorescence was read in computer-controlled fluorometer (Fluoroskan Ascent FL, Labsystems) at an excitation wavelength 540 nm and an emission wavelength of 590 nm. The % growth inhibition achieved by the compounds was calculated according to standard methods. The IC90 (expressed in μg/ml) was defined as the 90% inhibitory concentration for bacterial growth. A panel of reference compounds were simultaneously tested for QC approval.
The results are depicted in the table D2 below (STA+10% HS).

[2] = test system: Human HelaM cells; assay: Cytotoxicity MTT assay (TOX HELAM 222.125); assay type: cell-based; details: 72 hours
Description: Cytotoxicity of the compounds was evaluated using the MTT assay. Human HelaM cells grown in 96-well plates were exposed to serial dilutions of the tested compounds (final volume of 0.2 ml) and incubated for 72 hours at 37° C. and 5% CO2 Inhibitors are typically varied over the range of 25 to 0.8 μM. The final DMSO concentration in the assay is 0.5%. MTT (3-(4,5-Dimethylthiazol-2-yl)-2,5-diphenyltetrazolium bromide, a tetrazole) was added and reduced to purple formazan only in living cells. Solubilization of the formazan crystals was achieved by adding 100 μl 2-propanol. Cell viability was determined by measuring the absorbance of the reduced formazan, giving a purple color, at 540 nm and 690 nm. The absorbance measured at 690 nm was automatically subtracted from the absorbance at 540 nm, to eliminate the effects of non-specific absorption. The percent cytotoxicity achieved by the compounds was calculated according to standard methods. Cytotoxicity is reported as CC50, the concentration that causes a 50% reduction in cell viability.
The results are depicted in the table D2 below (TOX HELAM).

[3] = test system: M. catarrhalis ATCC 8176; assay: Antimicrobial spectrum, CLSI broth microdilution MIC; assay type: cell-based, Moraxella catarrhalis; details: b-lactamase negative, MHB
Description: (§4) Minimum Inhibitory Concentrations (MICs) were determined in accordance with the Clinical and Laboratory Standards Institute (CLSI) methodology against aerobic bacteria (CLSI M07-A8) (see Clinical and Laboratory Standards Institute. 2009. Methods for dilution antimicrobial susceptibility tests for bacteria that grow aerobically. CLSI document M07-A8, Vol. 29, No. 2.) by the broth microdilution method with cation-adjusted Mueller-Hinton broth (CA-MHB) medium for the majority of organisms, except for Haemophilus influenza, where Haemophilis test medium (HTM) broth was used. Descriptions of the individual organisms can be found in the table. Where possible, ATCC standard strains were tested.
(§5) The inoculum density for the susceptibility testing was standardized to give a final inoculum of approximately 5×10^5 CFU/mL.
(§6) Stock solutions of the compounds were prepared in DMSO at concentrations of 1 mg/mL. Linezolid was prepared in DMSO at a concentration of 2 mg/mL. Stock solutions of all compounds were diluted into CA-MHB to give a range of two-fold dilutions, depending upon the sensitivity of the organism being tested.

[4] = test system: S. aureus ATCC 29213; assay: as above; assay type: cell-based, Staphylococcus aureus; details: reference strain MSSA, MHB
Description: as §4, §5, §6

[5] = test system: S. aureus NRS119; assay: as above; assay type: cell-based, Staphylococcus aureus; details: LZD-R, MHB
Description: as §4, §5, §6

[6] = test system: S. aureus ATCC 43300; assay: as above; assay type: cell-based, Staphylococcus aureus; details: reference strain MRSA, MHB
Description: as §4, §5, §6

[7] = test system: S. aureus NRS120; assay: as above; assay type: cell-based, Staphylococcus aureus; details: LZD-R, MHB
Description: as §4, §5, §6

[8] = test system: S.aureus NRS121; assay: as above; assay type: cell-based, Staphylococcus aureus; details: LZD-R, MHB
Description: as §4, §5, §6

[9] = In vivo pharmacokinetic and oral bioavailability; details: male Swiss mice
Description: The in vivo pharmacokinetics and oral bioavailability of the compound of the examples was/is investigated in male Swiss mice (fed) following single intravenous (i.v.) bolus and oral (p.o.) administration. For the i.v. and p.o. solution formulations, the compound was/is dissolved in a 20% HP-β-CD solution. The pH of the formulations was/is around pH 4. All i.v. formulations were isotonic.

[10] = biological target: S. aureus ATCC 29213 FabI (Staphylococcus aureus (strain MRSA252), UniProt Q6GI75); assay: Staphylococcus aureus FabI enzyme inhibition assay; assay type: biochemical; details: 30 minutes at room temperature, pH 6.5
Description: D.1 FabI Enzyme Inhibition: Staphylococcus aureus FabI Enzyme Inhibition Assay
FabI enzyme inhibition assays were carried out in half-area, 384-well microtitre plates. Compounds were evaluated in 40-μl assay mixtures containing 100 mM NaADA, pH 6.5 (ADA=N-[2-acetamido]-2iminodiacetic acid), 250 μM crotonoyl-CoA, 625 μM NADH and 50 μg/ml S. aureus ATCC 29213 FabI Inhibitors were typically varied over the range of 50 to 0.39 μM. The reaction mixtures were incubated for 30 minutes at room temperature and the reaction was stopped by adding 200 mM Tris buffer (pH 9.0) to create a pH-shift. The consumption of NADH was monitored by measuring the change in absorbance at […]. By comparing sample readings to those of negative (absence of compound) and positive (absence of enzyme) controls, the percent inhibition of enzymatic activity of the compounds was determined A best-fit curve is fitted by a minimum of squares method. From this an IC50-value (expressed in μg/ml), resulting in 50% inhibition of enzymatic activity, was obtained.

[11] = test system: Staphylococcus aureus ATCC 29213; assay: Antibacterial susceptibility testing, IC90 determination (STA 361.159); assay type: cell-based; details: STA ATCC 29213; 90% inhibitory concentration for bacterial growth
Description: D.2 In Vitro Method for Testing Compounds for Antibacterial Activity Against Various Bacterial Strains Preparation of Bacterial Suspensions for Susceptibility Testing
as §1, §2
Antibacterial Susceptibility Testing: IC90 Determination
as §3

[12] = test system: H. influenza ATCC 49247; assay: Antimicrobial spectrum, CLSI broth microdilution MIC; assay type: cell-based, Haemophilus influenzae; details: HTM broth
Description: as §4, §5, §6

[13] = test system: E. coli tolC mutant; assay: as above; assay type: cell-based, Escherichia coli; details: MHB
Description: as §4, §5, §6

[14] = test system: E. coli ATCC 25922; assay: as above; assay type: cell-based, Escherichia coli; details: reference strain, MHB
Description: as §4, §5, §6

Q: With O=C1CCc2cc(/C=C/C(=O)N3CCC(Cc4cccs4)CC3)cnc2N1 [compound 37] as the molecule, how does the “STA + 10% HS (361.169) IC90” value [1] read?
A: 0.36 µg/mL

Q: What about the “TOX HELAM (222.125) CC50” value [2] of the same molecule?
A: 19.12 µg/mL

Q: And the MIC90 [3]?
A: 1 µg/mL (≈ 2.62 µM)

Q: And the MIC90 [4]?
A: 0.125 µg/mL (≈ 0.328 µM)

Q: What about the MIC90 [5] of the same molecule?
A: 0.125 µg/mL (≈ 0.328 µM)

Q: What about the MIC90 [6] of the same molecule?
A: 0.125 µg/mL (≈ 0.328 µM)

Q: What about the MIC90 [7] of the same molecule?
A: 0.125 µg/mL (≈ 0.328 µM)

Q: What about the MIC90 [8] of the same molecule?
A: 0.125 µg/mL (≈ 0.328 µM)

Q: What about the AUC0-inf ([9]; i.v., 2.5 mg/kg) of the same molecule?
A: 7464 ng·h/mL

Q: What about the “Half life (t1/2)” value ([9]; i.v., 2.5 mg/kg) of the same molecule?
A: 2.7 h

Q: What about the “Plasma clearance Cl” value ([9]; i.v., 2.5 mg/kg) of the same molecule?
A: 5.5 mL/min/kg

Q: What about the Vdz ([9]; i.v., 2.5 mg/kg) of the same molecule?
A: 1.3 L/kg

Q: What about the C0 ([9]; i.v., 2.5 mg/kg, 20% HP-β-CD solution) of the same molecule?
A: 2929 ng/mL

Q: What about the Oral bioavailability ([9]; p.o. 10 mg/kg vs i.v. 2.5 mg/kg) of the same molecule?
A: 72%

Q: What about the AUC0-inf ([9]; p.o., 10 mg/kg) of the same molecule?
A: 21394 ng·h/mL

Q: What about the “Half life (t1/2)” value ([9]; p.o., 10 mg/kg) of the same molecule?
A: 3.2 h

Q: What about the Tmax ([9]; p.o., 10 mg/kg) of the same molecule?
A: 2.0 h

Q: And the Cmax ([9]; p.o., 10 mg/kg, 20% HP-β-CD solution)?
A: 2950 ng/mL

Q: And the “FabI IC50” value [10]?
A: 0.50 µg/mL

Q: And the “STA (361.159) IC90” value [11]?
A: 0.30 µg/mL

Q: What about the MIC90 [12] of the same molecule?
A: >8 µg/mL

Q: What about the MIC90 [13] of the same molecule?
A: >8 µg/mL

Q: What about the MIC90 [14] of the same molecule?
A: >8 µg/mL

Q: With O=C1CCc2cc(/C=C/C(=O)N3CCC(Cc4ccccc4)CC3)cnc2N1 [compound 12] as the molecule, how does the “STA + 10% HS (361.169) IC90” value [1] read?
A: 2.09 µg/mL

Q: What about the “TOX HELAM (222.125) CC50” value [2] of the same molecule?
A: >9.431 µg/mL

Q: What about the “FabI IC50” value [10] of the same molecule?
A: 0.31 µg/mL

Q: What about the “STA (361.159) IC90” value [11] of the same molecule?
A: 1.19 µg/mL

Q: With COc1ccncc1C1=CCN(C(=O)/C=C/c2cnc3c(c2)CCC(=O)N3)CC1 [compound 20] as the molecule, how does the “STA + 10% HS (361.169) IC90” value [1] read?
A: 16.85 µg/mL

Q: What about the “TOX HELAM (222.125) CC50” value [2] of the same molecule?
A: >9.808 µg/mL

Q: What about the “FabI IC50” value [10] of the same molecule?
A: 0.78 µg/mL

Q: What about the “STA (361.159) IC90” value [11] of the same molecule?
A: 13.23 µg/mL
